Source: patent US20050054103A1, “Expansion of renewable stem cell populations using modulators of PI 3-kinase” (priority 2003, published 2005)

Experiments:
HL-60 cells = test: Copper determination in chelator treated cells (atomic absorption); type: cell-based, human; settings: for activity at 20 µM / activity at 100 µM / activity at 500 µM: Homo sapiens, HL-60, read-out: Average Intracellular Cu (% of control)
Experimental: Copper Determination: Cells were harvested by centrifugation at 1000×g for 5 minutes. The cell pellet was washed three times by re-suspending the cells in PBS (Ca^++ and Mg^++ free) and centrifugation at 1000×g. An aliquot containing 2×10^6 cells was then transferred into a metal-free Eppendorf tube and the cells were recovered by centrifugation at 1000×g. The cell pellet was re-suspended in 0.03 M ultra-pure nitric acid to give a concentration of 1×10^7 cells/ml. The cells were homogenized with a high shear mixer (polytron, Kinematica, Switzerland) for 1 minutes to disrupt the cell and release intracellular copper content. Cell samples were vortexed before transferring to a vial autosampler and analyzed in duplicate by a Perkin Elmer graphite furnace atomic absorption spectrophotometer at a wavelength of 324.7 nm. The samples were analyzed against copper standard solution prepared from a commercial stock solution that was diluted with 0.03 M ultra pure nitric acid.
FIG. 44 provides the chemical structure of the various chelators employed in these experiments.

CD34+ cells [1] = test: Nicotinamide supplementation of ex-vivo hematopoietic stem/progenitor cell cultures; type: cell-based, human; settings: for CD34+ cells per ml: 5 cytokines, re-selected
Experimental: Cultures were prepared and maintained as described above. Nicotinamide was added to cell cultures at concentrations of 1, 5 or 10 mM for up to three weeks culture period. All other procedures including mononuclear cell fraction collection and purification, purification of CD34^+ cells from mononuclear cell fractions, ex-vivo expansion of stem/progenitor cell populations, morphological assessment, surface antigen analysis, determination of CD34, CD38, Lin and other hematopoietic marker expression and cell population calculations were carried out as described in the experimental methods section of Example 1 above.
Hematopoietic CD34+ cell cultures were initiated in the presence of a combination of 5 cytokines, SCF, TPO, FLt3, IL-6 and IL-3, with or without different concentrations of nicotinamide. Following three weeks incubation period, the CD34+ cells were re-selected from culture by affinity re-purification method and were enumerated. […] In addition, the re-selected CD34+ cell fraction was FACS analyzed for stem/progenitor cell markers. The results, presented in FIGS. 15-17 and 18a-b, show substantial increases in the proportion of CD34+/CD38−, CD34+/Lin− and CD34+/(HLA-DR38−) cells in cultures treated with nicotinamide.

CD34 cells = test: Transition metal chelators in CD34+ cell liquid cultures (cell number, CD34 cells, clonability); type: cell-based, human; settings: for cell proliferation and CFUc expansion in long-term CD34 cultures: long term cultures with early cytokines
Experimental: The interphase layer of mononuclear cells were collected, washed three times with Ca/Mg free phosphate buffered saline containing 1% bovine serum albumin (BSA). The cells were incubated for 30 min. at 4° C. with murine monoclonal anti CD34 antibody (0.5 μg/10^6 mononuclear cells) and thereafter isolated using the miniMACS apparatus (Miltenyi-Biotec, Bergisch, Gladbach, Germany) according to the manufacturer's protocol.
Culture procedures: For the expansion of progenitor cells, CD34^+ enriched fractions or unseparated mononuclear cells were seeded at about 1-3×10^4 cells/ml in either alpha minimal essential medium containing 10% preselected fetal calf serum (FCS) (both from GIBCO, Grand Island, N.Y.), or serum-free medium (Progenitor-34 medium, Life Technologies, Grand Island, N.Y.). The media were supplemented with a mixture of growth factors and transition metal chelators. The cultures were incubated at 37° C. in an atmosphere of 5% CO2 in air with extra humidity. Half of the medium was changed weekly with fresh medium containing all the supplements.
Cloning potential evaluations: The cloning potential of cells developed in the liquid culture was assayed, at different intervals, in semi-solid medium. The cells were washed and seeded in 35 mm dishes in methylcellulose containing alpha medium supplemented with recombinant growth factors (SCF, G-CSF, GM-CSF and EPO). Following 2 weeks incubation, the cultures were scored with an inverted microscope. Colonies were classified as blast, mixed, erythroid, myeloid, and megakaryocytic, according to their cellular composition.
Morphological assessment: In order to characterize the resulting culture populations, aliquots of cells were deposited on a glass slide (cytocentrifuge, Shandon, Runcorn, UK), fixed and stained in May-Grunwald Giemsa. Other aliquots were stained by benzidine for intracellular hemoglobin.
Immunofluorescence staining: At different intervals, cells from the liquid cultures were assayed for CD34 antigen. Aliquots were harvested, washed and incubated on ice with FITC-labeled anti CD45 monoclonal antibody and either PE-labeled anti CD34 (HPCA-2) monoclonal antibody or PE-labeled control mouse Ig. After incubation, red cells were lysed with lysing solution, while the remaining cells were washed and analyzed by flow cytometer.
Flow cytometry: Cells were analyzed and sorted using FACStar^plus flow cytometer (Becton-Dickinson, Immunofluorometry systems, Mountain View, Calif.). Cells were passed at a rate of 1,000 cells/second through a […] nozzle, using saline as the sheath fluid. […] The PMTs was set at the appropriate voltage. Logarithmic amplification was applied for measurements of fluorescence and linear amplification—for forward light scatter. At least 10^4 cells were analyzed.
Cord blood-derived CD34 cells were plated in liquid culture in the presence of: FL—50 ng/ml, SCF—50 ng/ml, IL-6—50 ng/ml, with or without IL-3—20 ng/ml, with or without TEPA—10 μM. On day 7, the percentage of CD34 cells and the total cell number were determined. Aliquots equivalent to 1×10^3 initiating cells were assayed on days 0 and 7 for colony forming cells (CFU) by cloning in semi-solid medium. CFU expansion represents the ratio of CFU present on day 7 to CFU present on day 0.
CD34^+ cells derived from human neonatal cord blood were purified by immunomagnetic method and then cultured in liquid medium supplemented with cytokines either with or without transition metal chelators. At weekly intervals, the cultures were demi-depopulated by removing half of the culture content (supernatant and cells) and replacing it with fresh medium, cytokines and the chelators. At the indicated weeks the cellular content of the cultures were quantified for total cells (by a manual microscopic/hemocytometric method), for CD34^+ cells (by immuno-flow cytometry) and for clonogenic cells (by cloning the cells in cytokine-supplemented semi-solid medium).

[2] = test system: Mouse erythroleukemic cells (MEL); test: HMBA-induced differentiation of erythroleukemic cells; type: cell-based; settings: day 3
Experimental: Mouse erythroleukemic cells (MEL): MEL cells are erythroblast like cells. Following treatment with several chemicals (differentiation inducers) the cells undergo erythroid differentiation and accumulate hemoglobin. […] At day 3 of the culture, the total number of cells and the percentage of hemoglobin-containing cells were determined (Table 7).
On day 3, total cell number and hemoglobin containing (benzidine positive) cells were determined.

CD34+ cells [3] = test: Ex vivo expansion of CD34+ cell enriched cultures with RXR, RAR and RAR+RXR antagonists (CFU, CD34+ counts, FACS); type: cell-based, human
Experimental: Cultures were prepared and maintained as described above.
, the percentage of cells bearing the CD34^+ marker (considered to be mostly committed progenitor cells), as well as the percentage of cells bearing the markers CD34^+/CD38^− and CD34^+Lin^− […]

[4] = polyamine chelating agents, long-term CD34 cultures (FIGS. 39a-b)
[5] = HX-531 (10^−5M in table head), 3 weeks after seeding

Row | Compound | Average Intracellular ppb Cu (HL-60 cells; 20 μM chelator) | Average Intracellular ppb Cu (HL-60 cells; 100 μM chelator) | Average Intracellular ppb Cu (HL-60 cells; 500 μM chelator) | activity at 20 µM (HL-60 cells; 20 μM chelator) | activity at 100 µM (HL-60 cells; 100 μM chelator) | activity at 500 µM (HL-60 cells; 500 μM chelator) | further results
1 | NCCCN(CCN)CCN [N,N,Bis (2 animoethyl) 1,3 propane diamine] | 10.8 ppb | 13.4 ppb |  |  |  |  | Average Intracellular Cu (% of control) (HL-60 cells; 20 μM chelator): 22%; Average Intracellular Cu (% of control) (HL-60 cells; 100 μM chelator): 27%
2 | NC(=O)c1cccnc1 [Nicotinamide] |  |  |  |  |  |  | CD34+ cells per ml (CD34+ cells [1]; 1 mM nicotinamide, three weeks): 99×10^4 cells per ml; increase in CD34+/CD38− cells density vs untreated control (CD34+ cells [1]; 1 mM, three weeks): 1.7 fold; increase in CD34+/Lin− cells density vs untreated control (CD34+ cells [1]; 1 mM, three weeks): 10.5 fold; CD34+ cells per ml (CD34+ cells [1]; 5 mM nicotinamide, three weeks): 180×10^4 cells per ml; increase in CD34+/(HLA-DR38−) cells density vs untreated control (CD34+ cells [1]; 5 mM, three weeks): 11.5 fold; increase in CD34+/CD38− cells density vs untreated control (CD34+ cells [1]; 5 mM, three weeks): 51.7 fold; increase in CD34+/Lin− cells density vs untreated control (CD34+ cells [1]; 5 mM, three weeks): 205.5 fold; % of CD34^+/CD38^− of total cells (CD34+ cells [1]; Nicotinamide 5 mM): 9.69%; % of CD34^+/Lin^− of total cells (CD34+ cells [1]; Nicotinamide 5 mM): 4.11%; % of CD34^+/CD38^− of total cells (CD34+ cells [1]; Nicotinamide 10 mM): 34.67%; % of CD34^+/Lin^− of total cells (CD34+ cells [1]; Nicotinamide 10 mM): 16.58%
3 | NCCN [EDA, ethylenediamine] |  |  |  |  |  |  | cell proliferation and CFUc expansion in long-term CD34 cultures (CD34 cells): support continuous cell proliferation and long-term generation of CFUc and to delay cell differentiation; concentration with optimal activity (CD34 cells; [4]): 20 µM
4 | C1COCCNCCOCCN1 [1,7-Dioxa-4,10-diazacyclododecane] | 35.5 ppb | 36.1 ppb | 35.0 ppb | 72% | 73% | 71% | 
5 | NCCNCCNCCN [TETA, triethylene-tetramine] | 27.7 ppb | 21.2 ppb | 16.8 ppb | 56% | 43% | 34% | cell proliferation and CFUc expansion in long-term CD34 cultures (CD34 cells): support continuous cell proliferation and long-term generation of CFUc and to delay cell differentiation; concentration with optimal activity (CD34 cells; [4]): 20 µM
6 | C[C@H](CS)C(=O)N1CCC[C@H]1C(=O)O [Captopril, captopril] |  |  |  |  |  |  | Benzidine Positive Cells (%) ([2]; HMBA + chelator 20 μM): 29%; Cells/ml (×10^4) ([2]; HMBA + chelator 20 μM): 34 ×10^4; Benzidine Positive Cells (%) ([2]; HMBA + chelator 40 μM): 12%; Cells/ml (×10^4) ([2]; HMBA + chelator 40 μM): 34 ×10^4
7 | CN1c2ccc([N+](=O)[O-])cc2N=C(c2ccc(C(=O)O)cc2)c2cc3c(cc21)C(C)(C)CCC3(C)C [HX-531, 4-[5H-2,3-(2,5-Dimethyl-2,5-Hexano) 5-Methyl-8-nitrodibenzo [b,e][1,4]diazepin-11-yl) Benzoic acid] |  |  |  |  |  |  | CD34^+ (×10^4) (CD34+ cells [3]; [5]): 167 ×10^4; CFU (×10^3) (CD34+ cells [3]; [5]): 1920 ×10^3; CFU mixed (×10^3) (CD34+ cells [3]; HX-531, 3 weeks after seeding): 120 ×10^3; CD34^+ (×10^4) (CD34+ cells [3]; HX-531, 5 weeks after seeding): 1636 ×10^4; CFU (×10^3) (CD34+ cells [3]; HX-531, 5 weeks after seeding): 8542 ×10^3; CD34^+ (×10^4) (CD34+ cells [3]; HX-531, 9 weeks after seeding): 4977 ×10^4; CFU (×10^3) (CD34+ cells [3]; HX-531, 9 weeks after seeding): 36557 ×10^3; CD34^+ (×10^4) (CD34+ cells [3]; HX-531, 11 weeks after seeding): 4055 ×10^4; CFU (×10^3) (CD34+ cells [3]; HX-531, 11 weeks after seeding): 67338 ×10^3
8 | Glycyl-glycyl-histidine Cu complex | 202.7 ppb | 582 ppb | 1278 ppb |  |  |  | Average Intracellular Cu (% of control) (HL-60 cells; 20 μM chelator): 411%; Average Intracellular Cu (% of control) (HL-60 cells; 100 μM chelator): 1181%; Average Intracellular Cu (% of control) (HL-60 cells; 500 μM chelator): 2592%
9 | CC(C)(S)[C@@H](N)C(=O)O [PEN, Penicillamine] |  |  |  |  |  |  | cell proliferation and CFUc expansion in long-term CD34 cultures (CD34 cells): sustained cell proliferation and expansion of clonogenic cells; concentration with optimal activity (CD34 cells; transition metal chelating agents, long-term CD34 cultures (FIGS. 40a-b)): 5 µM
10 | C1CNCCOCCNCCN1 [1-Oxa-4,7,10-triazacyclododecane] | 39.0 ppb | 22.9 ppb | 17.6 ppb | 79% | 46% | 36% | 
11 | O=C1CC(=O)NCCNCCCNCCN1 [1,4,8,11-Tetraaza cyclotetradecane-5,7-dione] | 37.9 ppb | 27.4 ppb | 28.3 ppb | 77% | 56% | 57% | 
12 | CC(=O)NCCCCCCNC(C)=O [HMBA, hexamethylene bisacetamide] |  |  |  |  |  |  | Benzidine Positive Cells (%) ([2]; HMBA 4 mM alone): 46%; Cells/ml (×10^4) ([2]; HMBA 4 mM alone): 32 ×10^4
13 | C1CNCCNCCN1.Cl.Cl.Cl [1,4,7-Triazacyclononane trihydrochloride] | 15.8 ppb | 17.7 ppb |  | 32% | 36% |  | 
14 | CCCOc1cc2c(cc1\C(C)=C/C=C/C(C)=C/C(=O)O)C(C)(C)CCC2(C)C [LGN 100754] |  |  |  |  |  |  | activity on ex vivo expansion of stem/progenitor cells (CFU, CD34+, CD34+/38−, CD34+/Lin−) (CD34+ cells [3]; 10^−7 M, with TPO, FLT3, IL-6 and IL-3, 3 and 5 weeks): no activity
15 | NCCCNCCCNCCCN [N,N′-bis(3-aminopropyl)-1,3-propanediamine] | 33.8 ppb | 26.2 ppb | 27.9 ppb | 69% | 53% | 57% | 
16 | Copper |  |  |  |  |  |  | effect on TEPA activities (CD34 cells; TEPA-treated cultures supplemented with Copper): reversed
17 | Zinc |  |  |  |  |  |  | cell proliferation and CFUc expansion in long-term CD34 cultures (CD34 cells): mimicked the effect of the chelating agents in long term cultures, but to a smaller extent than the chelators themselves
18 | C1CNCCCNCCNCCCNC1 [1,4,8,12-tetraaza cyclopentadecane] | 13.4 ppb | 12.1 ppb | 9.6 ppb | 27% | 25% | 19% | 
